Experimental data: US20200281928A1, “VITAMIN B1 IN HIGH DOSES FOR USE IN THE MEDICAL TREATMENT OF MOTOR SYMPTOMS OF SOME SPORADIC NEURODEGENERATIVE DISEASES, OF GENETIC ORIGIN, AND OF CLUSTER HEADACHE AND OF MIGRAINE HEADACHE” (priority 2017, published 2020)
Like-named read-outs stand apart in the source and are kept apart here.

Tests used:
[1] = test system: Cortico-Basal Degeneration; conditions: for Improvement of motor symptoms: UPDRS portion III, two months of therapy; for UPDRS portion III after therapy: three 100 mg/ml vials intramuscularly per week plus low doses of other group b vitamins and magnesium, two months, scale 0-56
Protocol: We treated two patients affected by such pathology, two men with three vials intramuscularly per week of vitamin B1. One vial included 100 mg/ml of thiamine. The injection was performed in the three odd or even midweek days. The dose was determined empirically based upon the disease progression rapidity.
Furthermore low doses of all other vitamins of the group b, including folic acid, 150 mg of magnesium citrate and 150 mg of magnesium malate, were associated to the treatment.
The patients were evaluated with UPDRS (Unified Parkinson's Disease Rating Scale), scale validated for all Parkinson forms. Herein the scores of third portion (portion III) of this scale will be shown, illustrating the motor problems found by the examiner. […] Both of them were evaluated before starting the treatment and two months after the treatment beginning.
(§1) The diagnoses were made by Italian primary neurological centres based upon anamnestic, clinical, evolutionary, neuroradiological and neurophysiological data.

[2] = test system: Essential Tremor (also called intention tremor); conditions: for improvement of TETRAS ADL Subscale / improvement of TETRAS Performance subscale / TETRAS ADL Subscale score after treatment / TETRAS Performance subscale score after treatment: two 100-mg/ml vials intramuscularly per week, two months; for TETRAS ADL Subscale score after treatment: scale 0-48; for TETRAS Performance subscale score after treatment: scale 0-64
Protocol: Two patients were studied affected by such pathology, a person and a person. The intention tremor, differently from tremor in Parkinson disease appears and increases with muscular activity. The diagnosis was made by neurologists expert in the motion disorders based upon the clinical, neuroradiological and electrophysiological data.
Before starting the treatment, both patients were evaluated with a validated scale called TETRAS (TRG ESSENTIAL TREMOR RATING ASSESSMENT SCALE). They were re-evaluated with the same scale after two months of treatment with two 100-mg/ml vials of thiamine (vitamin B1) intramuscularly performed on Monday and on Thursday morning with the same scale.
In turn, this scale is constituted by two sub-scales. The first one, Activities of Daily Living Subscale (ADL Subscale) measures the impact the tremor has in the activities of daily life and it has a score ranging from 0 (no impact) to 48 (maximum impact).
The second one, Performance Subscale measures the width and the extension of tremor on the body and it has a score ranging from 0 (no tremor) to 64 (tremor with wide shocks and widespread).

[3] = test system: Multisystemic Atrophy (MSA) of Cerebellar Type (Type C); conditions: for Improvement of motor symptoms: SARA, two months of therapy; for SARA scale after therapy: five 100 mg/ml vials intramuscularly per week plus low doses of other group b vitamins and magnesium, two months, scale 0-40
Protocol: We treated three patients affected by such pathology with five vials intramuscularly per week of vitamin B1. A vial included 100 mg/ml of thiamine. The injection was performed every morning for the first five days of the week. The dose was determined empirically based upon the disease progression rapidity.
Moreover, low doses of all other vitamins of group b, including folic acid, 150 mg of magnesium citrate and 150 mg of magnesium malate, were associated to the treatment.
The patients were evaluated with SARA (Scale for Assessment and Rating of Ataxia), scale validated for all disorders of cerebellar type. The score of this scale ranges 0 (absence of symptoms) to 40 (maximum deficit).
as §1

[4] = test system: Cluster Headache (also called Horton headache); conditions: person
Protocol: The patient was evaluated with Cluster Headache Quality of Life (CHQ) scale before starting the treatment and every 15 days after starting the treatment which started in December 2016. The score of this scale ranges from 28 (absence of symptoms) to 140 (maximum deficit, maximum negative influence in daily life activities).
The patient started the therapy with 250 mg of thiamine orally, by increasing by 250 mg every three days.

Huntington's Chorea = conditions: one patient, two vials intramuscularly 100 mg/ml per week, two months
Protocol: We evaluated and treated one single patient. The disease is genetic and it has dominant transmission. The diagnosis was made in primary neurological centres based upon anamnestic, clinical and laboratory data. […] The first symptoms appeared about six years ago.
The patient, 56 years […], was evaluated with Unified Huntington's Disease Rating Scale (UHDRS). The scale consists of 31 items and ranges from 0 scores (absence of choreic motions) to 124 scores (maximum intensity and extension on the body of the involuntary motions of choreic type).
The first evaluation, before treatment was performed on Jun. 7, 2016, the second one, after two months of treatment with two vials intramuscularly 100 mg/ml per week was performed on Sep. 9, 2016.

Migraine Headache = conditions: for MIDAS after treatment: after 30 days, scale 0-25
Protocol: Migraine headache is the headache form characterized by a recurrent pain involving one only side of the head. The pulsating headache can last from four hours until three days and it is accompanied by nausea, vomiting, photophobia. The causes are poorly known. We studied two female patients starting from January 2017.
The patients were evaluated with Migraine Disability Assessment Test (MIDAS) evaluation scale before starting the treatment and every 30 days after starting the treatment, which started in January 2017. The score of this scale ranges from 0 (absence of symptoms) to 25 (maximum disability, maximum negative influence in the daily life activities).
The thiamine dose was 300 mg orally each morning.
The thiamine dose was 500 mg every morning orally.

[5] = test system: Progressive Supranuclear Paralysis; conditions: for Improvement of motor symptoms: UPDRS portion III, two months of therapy; for UPDRS portion III after therapy: five 100 mg/ml vials intramuscularly per week plus low doses of other group b vitamins and magnesium, two months, scale 0-56
Protocol: We treated […] affected by such pathology, two women and two men with five vials intramuscularly per week of vitamin B1. A vial included 100 mg/ml of thiamine. The injection was performed each morning for the first five days of the week. The dose was determined empirically based upon the disease progression rapidity. Furthermore, low doses of all other vitamins of the group b, including folic acid, 150 mg of magnesium citrate and 150 mg of magnesium malate, were associated to the treatment. The patients were evaluated with UPDRS (Unified Parkinson's Disease Rating Scale), scale validated for all Parkinson forms. Herein the scores of third portion (portion III) of this scale will be shown, illustrating the motor problems found by the examiner.
as §1

## Cc1ncc(C[n+]2csc(CCO)c2C)c(N)n1 [vitamin B1, thiamine]
[1]; patient N1 (person five)
  Improvement of motor symptoms: 57.6%
[1]; patient N1 (person five), before therapy 26
  UPDRS portion III after therapy: 15 scores
[1]; patient N2 (person six)
  Improvement of motor symptoms: 15.3%
[1]; patient N2 (person six), before therapy 35
  UPDRS portion III after therapy: 31 scores
[2]; patient N1
  improvement of TETRAS ADL Subscale: 75%
  improvement of TETRAS Performance subscale: 74.4%
[2]; patient N1, before treatment 16
  TETRAS ADL Subscale score after treatment: 4 scores
[2]; patient N1, before treatment 19.5
  TETRAS Performance subscale score after treatment: 5 scores
[2]; patient N2
  improvement of TETRAS ADL Subscale: 65.3%
  improvement of TETRAS Performance subscale: 68.2%
[2]; patient N2, before treatment 22
  TETRAS Performance subscale score after treatment: 7 scores
[2]; patient N2, before treatment 23
  TETRAS ADL Subscale score after treatment: 8 scores
[2]; two Essential Tremor patients, long-term treatment never suspended
  alteration in the common laboratory examinations: nor any alteration in the common laboratory examinations
[2]; two Essential Tremor patients, long-term treatment never suspended (intramuscular vials or 4 grams each day orally)
  side effects: no any side effect
[2]; two Essential Tremor patients, 4 grams each day of vitamin B1 orally for some months instead of the vials
  result with the equivalent dose orally: keeping the same results of the vials
[3]; patient N1 (person one)
  Improvement of motor symptoms: 14.3%
[3]; patient N1 (person one), before therapy 7
  SARA scale after therapy: 6 scores
[3]; patient N2 (person eight)
  Improvement of motor symptoms: 37.5%
[3]; patient N2 (person eight), before therapy 8
  SARA scale after therapy: 3 scores
[3]; patient N3
  Improvement of motor symptoms: 16.0%
[3]; patient N3, before therapy 25
  SARA scale after therapy: 21 scores
[4]; at the dose of 750 mg per day orally, printed as within about 8 days
  time from the beginning until the headache attacks wholly disappeared: ≤ 8 days
[4]; oral thiamine interrupted
  effect of an attempt of interrupting the treatment: quick re-appearance of headache episodes
[4]; oral thiamine, maintained by continuing the treatment (more than five months)
  outcome of symptoms under continued treatment: complete regression of the symptoms
[4]; thiamine orally, 250 mg increased by 250 mg every three days to 750 mg per day, after 15 days, before treatment 82, scale 28 (absence of symptoms) to 140
  CHQ after treatment: 28 scores
Huntington's Chorea
  improvement of UHDRS: 27.5%
Huntington's Chorea; before treatment 62, scale 0-124
  UHDRS after treatment: 45 scores
Migraine Headache; migraine patients on oral thiamine, maintained by continuing the same treatment
  days of treatment after which the regression of the episodes was already present: 7 days
Migraine Headache; patient N1, 300 mg orally each morning, before treatment 19
  MIDAS after treatment: 0 scores
Migraine Headache; patient N2 (person ten), 500 mg every morning orally, before treatment 20
  MIDAS after treatment: 0 scores
[5]; patient N1 (person two)
  Improvement of motor symptoms: 20.3%
[5]; patient N1 (person two), before therapy 31
  UPDRS portion III after therapy: 25 scores
[5]; patient N2 (person seven)
  Improvement of motor symptoms: 19.9%
[5]; patient N2 (person seven), before therapy 37
  UPDRS portion III after therapy: 30 scores
[5]; patient N3 (person twelve)
  Improvement of motor symptoms: 32.5%
[5]; patient N3 (person twelve), before therapy 23
  UPDRS portion III after therapy: 16 scores
[5]; patient N4
  Improvement of motor symptoms: 21.8%
[5]; patient N4, before therapy 28
  UPDRS portion III after therapy: 22 scores
[5]; patient N5
  Improvement of motor symptoms: 26.6%
[5]; patient N5, before therapy 28
  UPDRS portion III after therapy: 20 scores
